For 6 compounds, IC50 results are on record in patent US20050215626A1, “Substituted benzofuran oximes” (WYETH, priority 2003, published 2005).

The assay deals with human PAI-1 (Homo sapiens, UniProt P05121). Kind of assay: Assay for determining the IC50 of inhibition of PAI-1 (active PAI-1 bound to tPA-coated plate, antibody detection). The following applies: inhibition of Plasminogen Activator Inhibitor-1; test compounds 1-50 μM incubated with human PAI-1 (50 ng/ml), pH 7.5, human tPA-coated plate. The class given is biochemical. As to the method:
This assay is based upon the non-SDS dissociable interaction between tPA and active PAI-1. Assay plates are initially coated with human tPA (10 μg/ml). Test compounds are dissolved in DMSO at 10 mM, then diluted with physiologic buffer (pH 7.5) to a final concentration of 1-50 μM. The test compounds are incubated with human PAI-1 (50 ng/ml) for 15 minutes at room temperature. The tPA-coated plate is washed with a solution of 0.05% Tween 20 and 0.1% BSA, then the plate is blocked with a solution of 3% BSA. An aliquot of the test compound/PAI-1 solution is then added to the tPA-coated plate, incubated at room temperature for 1 hour, and washed. Active PAI-1 bound to the plate is assessed by adding an aliquot of a 1:1000 dilution of the 33B8 monoclonal antibody against human PAI-1, and incubating the plate at room temperature for 1 hour (Molecular Innovations, Royal Oak, Mich.). The plate is again washed, and a solution of goat anti-mouse IgG-alkaline phosphatase conjugate is added at a 1:50,000 dilution in goat serum. The plate is incubated 30 minutes at room temperature, washed, and a solution of alkaline phosphatase substrate is added. The plate is incubated 45 minutes at room temperature, and color development is determined at OD405 nm. The quantitation of active PAI-1 bound to tPA at varying concentrations of the test compound is used to determine the IC50. Results are analyzed using a logarithmic best-fit equation. The assay sensitivity is 5 ng/mi of human PAI-1 as determined from a standard curve ranging from 0-100 ng/ml.

Chain of human PAI-1 (P05121 24-402): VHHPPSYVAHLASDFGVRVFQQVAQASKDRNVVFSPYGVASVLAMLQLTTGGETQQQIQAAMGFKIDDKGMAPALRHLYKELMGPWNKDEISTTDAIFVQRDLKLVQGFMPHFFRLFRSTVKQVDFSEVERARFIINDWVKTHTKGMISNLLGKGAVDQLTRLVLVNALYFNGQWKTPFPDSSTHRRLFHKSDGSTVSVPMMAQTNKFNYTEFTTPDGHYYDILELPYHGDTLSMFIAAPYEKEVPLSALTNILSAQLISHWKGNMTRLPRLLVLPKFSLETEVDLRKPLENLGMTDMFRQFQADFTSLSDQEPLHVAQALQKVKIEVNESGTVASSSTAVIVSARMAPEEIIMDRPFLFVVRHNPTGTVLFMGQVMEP

Compound `CCCCc1oc2ccccc2c1/C=N/OCCCOc1ccc(C(=O)O)c(NC(=O)c2ccc(C(C)(C)C)cc2)c1` [Compound 1, 4-[3-({[(1E)-(2-butyl-1-benzofuran-3-yl)methylidene]amino}oxy)propoxy]-2-[(4-tert-butylbenzoyl)amino]-benzoic acid] showed a concentration for half-maximal inhibition (IC50) of 44.4 µM.

The compound `CCCCc1oc2ccccc2c1/C=N/OCCCOc1ccc(C(=O)O)c(O)c1` [Compound 3, 4-[3({[(1E)-(2-butyl-1-benzofuran-3-yl)methylidene]amino}oxy)propoxy]-2-hydroxybenzoic acid] returned an IC50 of 19.2 µM.

`CCCCc1oc2ccccc2c1/C=N/OCc1ccc(C(=O)O)c(Br)c1` [Compound 5, 2-bromo-4-[({[(1E)-(2-butyl-1-benzofuran-3-yl)methylidene]amino}oxy)methyl]benzoic acid] registered a concentration for half-maximal inhibition (IC50) of 29.2 µM.

Compound `CCCCc1oc2ccccc2c1/C=N/OCCOc1ccc(C(=O)O)cc1Cl` [Compound 4, 4-[2-({[(1E)-(2-butyl-1-benzofuran-3-yl)methylidene]amino]oxy)ethoxy]-3-chlorobenzoic acid] registered a 50% inhibitory concentration (IC50) of 24.8 µM.

Regarding `CCCCc1oc2ccccc2c1/C=N/OCCCOc1ccc(C(=O)O)cc1-c1ccc(C(F)(F)F)cc1` [Compound 6, 6-[3-({[(1E)-(2-butyl-1-benzofuran-3-yl)methylidene]amino}oxy)propoxy]-4′-(trifluoromethyl)-1,1′-biphenyl-3-carboxylic acid], the half-maximal inhibitory concentration (IC50) came out at 17.5 µM.

For the compound `CCCCc1oc2ccccc2c1/C=N/OCCCOc1ccc(CC(=O)O)cc1` [Compound 2, {4-[3-({[(1E)-(2-butyl-1-benzofuran-3-yl)methylidene]amino}oxy)propoxy]phenyl}acetic acid], the half-inhibitory concentration (IC50) stood at 31.4 µM.

By IC50 is commonly meant the concentration at which inhibition is half-maximal. High values mean weaker potency, low ones greater potency.
